# According to patent US10889812B2, “Short non-coding protein regulatory RNAs (sprRNAs) and methods of use” (University of Maryland, Baltimore, priority 2014, dated 2021):
# Experiments:
# H157 and SKMES-1 cells [1] = assay: MTT assay, cell killing by CDDP after Ant-138; type: cell-based, human; conditions: Ant-138 then CDDP (IC25 dose) six hours later, vs Scr pre-treated
# Protocol: Cell viability and cell growth curve assay were determined by MTT assay and trypan blue exclusion assay, respectively as described previously (Kirino, Y. & Mourelatos, Z. Mouse Piwi-interacting RNAs are 2′-O-methylated at their 3′ termini Nat Struct Mol Biol. 14, 347-348 (2007)). BrieflySpecifically, MTT (5 mg/ml) was added into cells and incubated at culture condition for 3 hours, removed the medium carefully and dissolved formazan in DMSO, assay was used to assess the surviving cells and OD values were measured using Microplate Reader Manager (Bio Rad) at wavelengths of 570/690 nm. For trypan blue exclusion assay, cells were washed in PBS for three times, and dyed in 0.4% tyrpan blue solution. Unstained viable cells were counted in hemocytometer chamber under microscope. Each experiment was performed three times independently.
# (§1) To determine if the increased piR-L-138 plays a functional role in CDDP treated SCC cells, we used DNA antisense oligos of piR-L-138 (Ant-138) to block piR-L-138 in H157 and SKMES-1 cells. Six hours after Ant-138 treatment, we treated the cells with CDDP (IC25 dose).
# H157 and SKMES-1 cells [2] = assay: Flow cytometry, sub-G1 phase after CDDP; type: cell-based, human; conditions: Ant-138 then CDDP (IC25 dose) six hours later, vs Scr
# Protocol: Cell cycle distribution was analyzed by Flow Cytometry (Becton-Dickinson). Cells were synchronized in growth factor-free Keratinocyte-SFM with 2 mM Thymidine (Catalog No. T1895, Sigma-Aldrich) for 24 hrs. Transfection is performed using Lipofectamine™ RNAiMAX (Invitrogen) according to its manual, and the final concentration of annealed oligo RNAs is 400 nM. Four hour after transfection, culture medium was replaced by complete Keratinocyte-SFM supplemented with L-Glutamine, prequalified human recombinant EGF 1-53 and BPE. Cells were harvested at different time points, washed in phosphate-buffer saline (PBS), fixed with ice-cold 70% ethanol, and strained in PI/RNase solution (BD Pharmigen). The samples were analyzed on a FACScan flow cytometer in combination with BD lysis software (Becton-Dickinson).
# as §1
# cleaved PARP = assay: Western blot of cleaved PARP in CDDP treated SCC cells; type: cell-based, human; conditions: pre-treated SCC cells plus CDDP, vs Scr
# From the text: (§2) Primary antibodies used were: anti-Moesin (1:1,000, Clone Q480, Catalog No. 3150, Cell Signaling), anti-p-ERM (Clone 41A3, Catalog No. 3149, Cell Signaling), anti-Moesin (Clone 38/Moesin, Catalog No. 610401, BD Transduction Laboratories), anti-p-Moesin (Thr558, Catalog No. 12895, Sanra Cruz), anti-β-actin (1:5,000, Catalog No. A228, Sigma-Aldrich), anti-EBP50 (1:100, Clone 6/EBP50, Catalog No. 61160, BD Transduction Laboratories), anti-F-actin (1:100, Clone NH3, Catalog No. MA1-80729, Thermor Fisher), anti-p-Wee 1 (Se53, 1:1000, Catalog No. sc-130223, Sanra Cruz), anti-Wee 1 (C-20, 1:1000, Catalog No. sc-325, Sanra Cruz), anti-p-Cdc2 (Tyr15, 1:1000, Catalog No. 9111, Cell Signaling), anti-p-Cdk (Thr14/Tyr15-R, 1:1000, Catalog No. sc-28435-R, Sanra Cruz), anti-Cdc2 p34 (H-297, 1:1000, Catalog No. sc-747, Sanra Cruz), anti-p-Cdc25C (Ser198, 1:1000, Catalog No. 9529, Cell Signaling), anti-CDK2 (78B2, 1:1000, Catalog No. 2546, Cell Signaling), anti-p-Histone H2AX (Ser139, 20E3, :1000, Catalog No. 9718, Cell Signaling), and anti-GFP (N-terminal, 1:4000, Catalog No. G1544, Sigma). Secondary antibodies used were: Goat anti-Mouse (1:2,500, Catalog No. 31160, Pierce), and Goat anti-Rabbit (1:2,500, Catalog No. 31460, Pierce). Cells were lysed in RIPA buffer (Sigma) on ice after washed in PBS twice, centrifuge at 160,000×g for 10 min at 4° C. […]
# MDM2 = assay: Western blot of MDM2 cleavage and phosphorylation in SCC cells; type: cell-based, human; conditions: SCC cells pre-treated, upon CDDP treatment
# From the text: as §2, with “C. Protein in supernatant was qualified using BCA™ protein assay kit (Thermo Scitific) and denatured in SDS loading buffer in boiling water, run 10% SDS-PAGE gel and transferred to nitrocellulose membrane (Thermo Scitific).” for “C.”
# Next, we wanted to explore potential mechanism of piR-L-138-mediated apoptosis inhibition in CDDP treated lung SCC cells. We first analyzed cleaved PARP, a protein marker indicative of apoptosis, and found it was increased in the SCC cells pre-treated with Ant-138 compared with Scr pre-treated cells (FIG. 15d). As both of the SCC cell lines harbor p53 mutations, we analyzed mouse double minute 2 homolog (MDM2) which has been implicated in apoptosis including p53-independent pathway (Bohlman S, Manfredi J J. p53-independent effects of Mdm2. Subcell Biochem. 85,235-46 (2014); Bouska A, Eischen C M. Mdm2 affects genome stability independent of p53. Cancer Res. 69, 1697-701 (2009); Zhang, Z., Li, M., Wang, H., Agrawal, S., and Zhang, R. Antisense therapy targeting MDM2 oncogene in prostate cancer: Effects on proliferation, apoptosis, multiple gene expression, and chemotherapy. Proc. Natl. Acad. Sci. 100, 11636-11641 (2003); Zhang Z, Wang H, Li M, Agrawal S, Chen X, Zhang R. MDM2 Is a Negative Regulator of p21WAF1/CIP1, Independent of p53. […]
# H157 tumor xenograft = H157 tumor xenograft model, intra-tumor injection of Ant-138 with CDDP; type: in vivo, mice
# From the text: To further validate the interaction between piR-L-138 and MDM2 at the individual cell level, we performed fluorescence in situ hybridization (FISH) assay using a digoxin (DIG)-labelled RNA probe complimentary to piR-L-138 and an anti-MDM2 antibody. We first tested the probes in HBE4 cells which express high levels of piR-L-138 to ensure the sensitivity and specificity of the piR-L-138 probe and MDM2 antibody (FIG. 16c). […] This is consistent with the observed up-regulation of piR-L-138 in SCC cells upon CDDP treatment and the interaction between piR-L-138 and MDM2. Next, we used H157 tumor xenograft model to determine if targeting piR-L-138 can enhance CDDP-mediated tumor cell apoptosis in SCC in vivo. In this proof of principle experiment, we used intra-tumor injection of Ant-138 (SEQ ID NO:556) which was formulated with MaxSuppr in vivo RNALancerll as described previously (Wiggins J F, et al. Development of a Lung Cancer Therapeutic Based on the Tumor Suppressor MicroRNA-34. Cancer Res. 70, 5923-30(2010)) due to the requirement of very large quantity of formulated reagents needed for systemic delivery. […] Since we were using local injection with sub-optimal dose, such modest anti-tumor activity was expected. We were focusing on determining if Ant-138 increased apoptosis at the sites of injection by analyzing tumor tissue sections for cleaved caspase 3 as an indicator of apoptosis and Ant-138.
# SCC cells = assay: Annexin V staining assay, CDDP-induced apoptosis; type: cell-based, human; conditions: pre-treated SCC cells, vs Scr pre-treated
# From the text: as §1
# LAMC2 = LAMC2 expression by real time RT-PCR in HBE4 cells; type: cell-based, human
# From the text: FIG. 11. Expression of piR-L-163 in NSCLC and HBE cell lines measured by real time RT-PCR. (a) piR-L-163 expression levels in individual cell lines. (b) piR-L-163 express ion levels in HBE, ADC and SCC as groups. All the values are averages of four independent replicates, error bars represent mean s.d., and * indicates p<0.01 by Student's t-test. (c) LAMC2 express ion levels in HBE4 cells measured by real time RT-PCR in the conditions as labeled. Values are averages of three independent replicates, error bars represent mean s.d., and ** indicates p<0.05 by Student's t-test.
# We then wanted to determine whether piR-L-163 (SEQ ID NO:282) plays a functional role in human bronchial epithelial cells. We treated HBE4 cells as well as primary normal human bronchial epithelial (NHBE) cells with piR-L-163 complementary DNA oligonucleotides (Ant-163) (SEQ ID NO:496) or RNA oligonucleotides (Ant-163R) (SEQ ID NO:497) in the experiment. […] Cell cycle distributions were measured every 2 hrs.
# phosphor-proteins = assay: Western blots of phosphorylated proteins (p-Tyrosine, p-Theronin/Serine); type: cell-based, human; conditions: lung SCC cells treated with the DNA oligo
# From the text: (§3) To test the potential impact of the candidate sprRNAs identified by phosphor-protein binding in the phosphorylation status of the proteins, we selected a panel of 5 sprRNAs with sizes ranging from 25-50 nt but sharing a common 25 nt sequence and used DNA oligo complementary to the common sequence (5′-[…]-3′) (SEQ ID NO:489) to block these sprRNAs.
# lung SCC cell lines = assay: MTT cell viability after DNA oligo blocking 5 sprRNAs; type: cell-based, human; conditions: twenty-four hours after treatment, 4 lung SCC cell lines
# From the text: as §3
substance,measurement,setting,value
"Ant-138: DNA sequence that is antisense to piR-L-138, SEQ ID NO:556 (antisense AGGTCTCAGAGTAATTCTAGAGCTAAAGT; listed as DNA, chemistry not given here)",cell killing (MTT),H157 and SKMES-1 cells [1],significantly increased cell killing
same,proportion of the sub-G1 phase,H157 and SKMES-1 cells [2],substantially increased proportion of the sub-G1 phase
same,cleaved PARP,cleaved PARP,increased
same,MDM2 cleavage,MDM2,substantially reduced MDM2 cleavage
same,serine-166 phosphorylation in the cleaved MDM2,MDM2,increase of serine-166 phosphorylation in the cleaved MDM2
same,caspase 3 positive tumor cells by Ant-138 level (immunofluorescence),H157 tumor xenograft; tumors treated with CDDP and Ant-138,significantly concentrated caspase 3 positive tumor cells in areas with high levels of Ant-138
same,tumor size,"H157 tumor xenograft; with CDDP, intra-tumor injection, vs untreated and CDDP plus Scr",smaller but the difference was only border line statistically
same,expression of cleaved caspase 3 in tumors,"H157 tumor xenograft; with CDDP, vs CDDP and Scr control",higher expression of cleaved caspase 3
same,sensitivity to CDDP-induced apoptosis (annexin V),SCC cells,more sensitive to CDDP-induced apoptosis
"Ant-163R: piR-L-163 complementary RNA oligonucleotides, SEQ ID NO:497 (antisense GGUCAGAGAAUCAAAGUAACAUCAUGAUAU; listed as RNA, chemistry not given here)",expression levels of LAMC2,LAMC2,reduced expression levels of LAMC2
"DNA oligo complementary to the common sequence: DNA sequence antisense to SEQ ID NO:489 (AntiC, SEQ ID NO:558), blocks 5 sprRNAs sharing a common 25 nt sequence (antisense CGAACCCGGGCCGCGGCGGTGAGA; DNA, backbone and methylation of C not given here)",levels of phosphorylated proteins,phosphor-proteins,changes of levels in certain phosphor-proteins
same,cell viability (MTT),lung SCC cell lines,significant growth inhibition
